Results taken from patent US20240206484A1, “METHOD OF DEVELOPMENT OF SELECTIVE PROBIOTIC GROWTH PROMOTORS AND SELECTIVE PATHOGEN GROWTH INHIBITORS FROM KIMCHI FERMENTATION” (Hannip Inc., priority 2022, published 2024).

What was measured:
[1] = tested on: L. plantarum; experiment: Impact of lactic acid on the effect of BKE-X1 or BKE-X2 on growth, colonies counted; type: cell-based, Lactobacillus plantarum; conditions: lactic acid to reduce pH to 3 or less; 48 hours at 30° C.; vs control
Experimental: (§1) To MRS culture medium (1 mL) in a culture tube (15 mL), saline (9 mL), BKE-X1 or BKE-X2 (500 mg), and kimchi bacteria culture solution (select one of L. mesenteroides and L. plantarum) (0.5 mL) were added. The mixture was vortex stirred and cultured for 48 hours at 30° C. To MRS culture medium (1 mL) in another culture tube (15 mL), saline (9 mL), BKE-X1 or BKE-X2 (500 mg), kimchi bacteria culture solution (select one of L. mesenteroides and L. plantarum) (0.5 mL), and lactic acid (to reduce pH to 3 or less) were added. The mixture was vortex stirred and cultured for 48 hours at 30° C. To MRS culture medium (1 mL) in yet another culture tube (15 mL), saline (9 mL), kimchi bacteria culture solution (select one of L. mesenteroides and L. plantarum) (0.5 mL), and lactic acid (to reduce pH to 3 or less) were added. The mixture was vortex stirred and cultured for 48 hours at 30° C. As the control, to MRS culture medium (1 mL) in yet another culture tube (15 mL), saline (9 mL) and kimchi bacteria culture solution (select one of L. mesenteroides and L. plantarum) (0.5 mL) were added. The mixture was vortex stirred and cultured for 48 hours at 30° C. An aliquot (0.5 mL) was collected from each culture medium and serially diluted to 16,000× using saline solution. […] The colonies were counted and photographed, then compared side by side.

[2] = tested on: L. mesenteroides; experiment: as above; type: cell-based, Leuconostoc mesenteroides; conditions: lactic acid to reduce pH to 3 or less; 48 hours at 30° C.; vs control
Experimental: as §1

SMILES: CC(O)C(=O)O (centres unmarked) [lactic acid]
- growth of L. plantarum, lactic acid alone [1]: negligibly promoting
- growth of L. mesenteroides, lactic acid alone [2]: negligibly inhibit
